Measured values from patent US9260410B2, “P38 MAP kinase inhibitors” (Respivert Ltd., priority 2010, dated 2016).
Read-outs that look alike come from different tables or passages of the source.

Experiments:
[1] = tested on: Differentiated U937 cells; assay: MTT assay: cell viability; format: cell-based, human; settings: 10 μg/ml
Procedure: The supernatant was replaced with 200 μL of new media and 10 μL of MTT stock solution (5 mg/mL) was added to each well. After incubation for 1 hr the media were removed, 200 μL of DMSO was added to each well and the plates were shaken lightly for 1 hr prior to reading the absorbance at 550 nm. The percentage loss of cell viability was calculated for each well relative to vehicle (0.5% DMSO) treatment. Consequently an apparent increase in cell viability for drug treatment relative to vehicle is tabulated as a negative percentage.

[2] = tested on: LPS-induced TNFα release in THP-1 cells; assay: LPS-induced TNFα release in THP-1 cells; format: cell-based; settings: Homo sapiens
Procedure: THP-1 cells, a human monocytic cell line, were stimulated with 3 μg/mL of LPS (from E. Coli; 0111:B4, Sigma) for 4 hr and the supernatant collected for determination of the TNFα concentration by sandwich ELISA (Duo-set, R&D systems). The inhibition of TNFα production was calculated at each concentration by comparison with vehicle control. The 50% inhibitory concentration (IC50) was determined from the resultant concentration-response curve.

[3] = tested on: LPS-induced TNFα release in d-U937 cells; assay: LPS-induced TNFα release in d-U937 cells; format: cell-based; settings: Homo sapiens, dU937, 4 h
Procedure: U937 cells, a human monocytic cell line, were differentiated to macrophage-type cells by incubation with phorbol myristate acetate (PMA; 100 ng/ml) for 48 to 72 hr. […] The supernatant was collected for determination of TNFα and IL-8 concentrations by sandwich ELISA (Duo-set, R&D systems). […] The relative 50% effective concentration (REC50) was determined from the resultant concentration-response curve. The inhibition of IL-8 production was calculated at each concentration of test compound by comparison with vehicle control.

Row | Structure (SMILES) | MTT Assay 4 h (cell viability) ([1]; d-U937, 4 hr in 5% FCS) | MTT Assay 24 h (cell viability) ([1]; d-U937, 24 h in 10% FCS) | IC50 ([2]; THP-1 cells, 3 μg/mL LPS, 4 hr, read-out: LPS/TNFα THP-1 IC50) [nM] | EC50 ([3]; read-out: LPS/TNFα d-U937 REC50) [nM] | IC50 ([2]; THP-1, 4 h, read-out: LPS/TNFα THP-1 IC50 (nM)) [nM] | EC50 ([3]; read-out: LPS/TNFα d-U937 REC50 (nM)) [nM]
1 | Cc1ccc(-n2nc(C(C)(C)C)cc2NC(=O)Nc2ccc(OCCN3CCOCC3)c3ccccc23)cc1 [BIRB796, 1-(3-tert-Butyl-1-p-tolyl-1H-pyrazol-5-yl)-3-(4-(2-morpholinoethoxy)naphthalen-1-yl)urea] | − (− = <30% inhibition at 10 μg/ml) | − (− = <30% inhibition at 10 μg/ml) | 4.1 | 4.8 | – | –
2 | CC(=O)Nc1cc(Oc2ccc(NC(=O)Nc3cc(C(C)(C)C)nn3-c3ccc(C)cc3)c3ccccc23)ccn1 [Example 3, N-(4-((4-(3-(3-(tert-Butyl)-1-(p-tolyl)-1H-pyrazol-5-yl)ureido)naphthalen-1-yl)oxy)pyridin-2-yl)acetamide] | – | – | – | – | 1.6 | 1
